One may read the AUC as the area under the concentration-time curve, a measure of exposure. By Cmax is commonly meant the peak of the concentration-time curve. The Vss is a proportionality between amount in the body and measured concentration, not a real space. What is called clearance is the rate of elimination divided by the concentration.

This is an account of results in patent US20120122956A1, “METHODS FOR INHIBITING AN[…] MULTI-ARM POLYMERIC CONJUGATES OF 7-ETHYL-10-HYDROXYCAMPTOTHECIN” (ENZON PHARMACEUTICALS, INC., priority 2009, published 2012).

Series [1] can be described thus: Solubility in aqueous saline solution. The class given is physicochemical.
A short description of series [2]: Pharmacokinetics in tumor free Balb/C mice. The class given is in vivo. The method, then:
Tumor free Balb/C mice were injected with a single injection of 20 mg/kg 4armPEG-Gly-(7-ethyl-10-hydroxycamptothecin) conjugates. At various time points mice were sacrificed and plasma was analyzed for intact conjugates and released 7-ethyl-10-hydroxycamptothecin by HPLC. Pharmacokinetic analysis was done using non-compartmental analysis (WinNonlin).

A short description of the next series: Pharmacokinetics in rats. The class given is in vivo. The method, then:
Additionally, pharmacokinetic profiles of 4arm PEG-Gly-(7-ethyl-10-hydroxycamptothecin) were investigated in rats. In rats, dose levels of 3, 10 and 30 mg/kg (7-ethyl-10-hydroxycamptothecin equivalent) were used. The pharmacokinetic profiles in rats were consistent with those of mice.

The subject of series [3] is CAMs grafted with tumor biopsy specimens of HTLA-230 or GI-LI-N xenografts. The following applies: for number of allantoic vessels radiating towards the tumor specimen: compared to control CAMs, CPT-11 10 or 40 mg/kg, compound 9 10 mg/kg (SN38 based). Here is the method:
Protoc. 2006, 1:85-91. Mice were injected with the human NB cell line, HTLA-230 or GI-LI-N. Tumor biopsy specimens in size of 1-2 mm^3 were obtained from the xenografted mice and then grafted onto the CAMs. […] In the control group, the CAMs were incubated with PBS buffer. […] The CAMs were examined daily for 12 days and photographed in ovo with a stereomicroscope equipped with a camera and image analyzer system (Olympus Italia, Italy). CD31-positive microvessels were measured and normalized with that of the control group. Less CD31-positive microvessels mean greater antiangiogenic effects. Microvessel density was represented by the percentage of the total number of intersection points occupied by CD31-positive vessels cut transversely (diameter of 3-10 μm). Mean values±SD were determined for each analysis.

Series [4] deals with HIF-1α. Put plainly: HIF-1-dependent luciferase expression in U251-HRE human glioma xenografts. The class given is in vivo, mice. Conditions: for luminescence (HIF-1-dependent luciferase): single dose or multiple doses, 48 hour and 120 hour time points, not normalized. Here is the method:
The effect was measured by HIF-1-dependent luciferase expression in the U251-HRE xenografts.
(§1) The human glioma cell line, U251-HRE was kindly provided by Dr. Giovanni Melillo at National Cancer Institute (Frederick, Md., United States). The cells were transfected with luciferase reporter plasmids containing three copies of a canonical hypoxia response element (HRE) from the inducible nitric oxide synthase gene (Rapsirada, et al. 2000). U251-HRE tumors were established in the right axillary flank of female Harlan Sprague-Dawley nude mice (Harlan World, Indianapolis, Ind.) by subcutaneous injection of 1×10^7 U251-HRE cells/mouse. […] At each treatment time point, the tumor volume measurements were recorded and the tumor weights (mg) calculated using mg=[tumor length×(tumor width)]/2. […] To do so, the mice were injected intraperineally with 150 mg/kg of D-luciferin Firefly, potassium salt (Biosynth International, Inc., Itasca, Ill.). After 10 minutes, the mice were anesthetized via isofluorane gas and imaged using the Xenogen IVIS 100 Imaging Station (Xenogen Corp., Alameda, Calif.).
For orientation: Xenograft models place foreign cells or tissue in a host animal.

Another series deals with U251-HRE xenografts. The following applies: zero to 125 hours of treatment (FIG. 13).
Description: as §1

Series [5] can be described thus: Hydrolysis in human plasma (conjugate half life, 7-ethyl-10-hydroxycamptothecin formation). The class given is in vitro ADME. Here is the method:
In human plasma, 7-ethyl-10-hydroxycamptothecin was steadily released from the PEG conjugates with a doubling time of 22 to 52 minutes and the release appeared to be pH and concentration dependent as described in the following EXAMPLE 24.

A short description of series [6]: 7-ethyl-10-hydroxycamptothecin formation from conjugates in mouse plasma. The class given is in vitro ADME.
A short description of series [7]: 7-ethyl-10-hydroxycamptothecin formation from conjugates in rat plasma. The class given is in vitro ADME.
The subject of series [8] is human neuroblastoma cells (GI-LI-N) xenograft tumors. Put plainly: Tumor angiogenesis and invasion in orthotopic GI-LI-N xenografted mice (VEGF, CD31, MMP-2, MMP-9 staining). The class given is in vivo. The method, then:
(§2) Xenograft tumors were established in mice by injecting human neuroblastoma cells (GI-LI-N) in the adrenal gland at day 0 (T0). […] The control group mice received HEPES-buffered saline solution. Histological examination was performed on the tumors removed from the mice at day 44 (T44).
The tissue sections were stained with antibodies against VEGF and CD31 to evaluate inhibition of angiogenesis. […] Cell nuclei were stained with DAPI. Morphometric analysis was performed on 9 randomly selected fields every 3 sections, observed at 200× magnification with an Olympus photomicroscope, using Image Analysis software (Olympus Italia). […] The sections were then washed twice in PBS and saturated with 2% BSA in PBS. In the morphometric analysis, the mean value in each image from the section, the final mean value for all the images and the SEM were calculated. The statistical significance of the differences between the mean values of the different experimental conditions was determined by Student's t test (GraphPad software). Findings were considered significant at P values <0.05 for all statistical evaluations.

Series [9] shares this test system. Conditions: compared to mice treated with CAMPTOSAR; 10 mg/kg i.v. q2d×5. The method, then:
as §2
The tissue sections removed from the treated mice in Example 27 were immunostained with TUNEL to evaluate apoptosis, and with primary antibody against histone H2ax (H2AFX) to evaluate DNA-damage dependent histone phosphorylation.

Series [10] concerns HIF-1α. Here is the method:
(§3) The cancer cells were grown in complete DMEM or RPMI-1640 medium, supplemented with 10% heat-inactivated FCS, as described in Pastorino F. et al., Cancer Res. 2006, 66:10073-82, 2006; Pastorino F. et al., Clin. Cancer Res. 2008, 14:7320-9; and Brignole C, et al., J. Nat'l. Cancer Inst. 2006, 98:1142-57). […] In some experiments (FIGS. 14(B) and (C)), the cancer cells were pre-incubated with 0.15 mM of Desferal (DFX or Deferoxamine purchased from Novartis Pharma in Stein, Swizerland) for 6 hours to induce HIF-1α. […] The cells were collected and western blotting analysis was performed using cell lysates as described in Pagnan G. et al., Clin. Cancer Res. 2009, 15:1199-209). Monoclonal anti-p53 (clone PAb 1801) and anti-HIF-1α (clone 54) were purchased from BD Biosciences (Buccinasco, Mich., Italy). Anti-HIF-2α (clone ep190b), and an anti-GAPDH (clone 14c10) antibodies were from Novus Biologicals, Inc (Cambridge, UK) and Cell Signaling Technology (Danvers, Mass., US), respectively.

Another series concerns HIF-2α. Conditions: GI-LI-N, HTLA-230, SH-SY5Y cells, 24 and 48 hours. Here is the method: as §3
Setting [11] is: 7-ethyl-10-hydroxycamptothecin released from Compound 9, single injection 20 mg/kg of conjugate.
Where [12] appears, read: released 7-ethyl-10-hydroxycamptothecin.
Where [13] appears, read: multiple doses at MTD (q2d×3, day 0, 2, 4; compound 9 10 mg/kg, CPT-11 40 mg/kg), 120 hours.
Setting [14] is: 10 mg/kg i.v. q2d×5, tumors removed day 44.
Where [15] appears, read: significantly when compared to Camptosar (P<0.05), 10 mg/kg i.v. q2d×5.

For the compound `CCc1c2c(nc3ccc(O)cc13)-c1cc3c(c(=O)n1C2)COC(=O)[C@]3(O)CC` [7-ethyl-10-hydroxycamptothecin], the “Solubility in Saline” value in series [1] is listed as “^a7-ethyl-10-hydroxycamptothecin is not soluble in saline”. Further, in series [2] (setting [11]), the AUC came out at 98.3 µg·h/mL, the CL amounted to 202 mL/h/kg, the Cmax turned out to be 13.2 µg/mL and the “Terminal t1/2” value worked out at 14.2 h. The volume of distribution (Vss) in [2] (setting [11]) amounted to 3094 mL/kg. In [2] (7-ethyl-10-hydroxycamptothecin released from the conjugate, mice), the terminal elimination half-life fell in the range of 18 to 26 h. Moreover, in series [2] (released 7-ethyl-10-hydroxycamptothecin, mice), the Enterohepatic circulation result was “observed”. The “apparent elimination half life” value in “Pharmacokinetics in rats” (7-ethyl-10-hydroxycamptothecin released from 4armPEG-Gly conjugate) was in the range of 21 to 22 h. In the series “Pharmacokinetics in rats” (setting [12]), the Enterohepatic circulation entry was “observed”, the clearance was determined as 131 mL/h/kg and the “estimated Vss” value is given as 2384 mL/kg.

On to `CCc1c2c(nc3ccc(OC(=O)N4CCC(N5CCCCC5)CC4)cc13)-c1cc3c(c(=O)n1C2)COC(=O)[C@]3(O)CC` [CPT-11, reference compound], for which the “number of allantoic vessels radiating towards the tumor specimen” value in series [3] was “decreased”. Further, the “downregulation of HIF-1α (luminescence normalized for tumor mass, change from baseline)” value turned out to be 15% with HIF-1α [4] (multiple doses (q2d×3, CPT-11 40 mg/kg), 48 hours) and 32% in the series on HIF-1α [4] (setting [13]). The “luminescence (HIF-1-dependent luciferase)” value with HIF-1α [4] was “minimal effect”. Further, the “downregulation of HIF-1α” value with HIF-1α [4] (single injection (qd×1, CPT-11 80 mg/kg)) was “no downregulation”. Further, the tumor mass result in the series with U251-HRE xenografts is “reduced”.

Turning to “^40K4arm-PEG-Sar-(20)-(7-ethyl-10-hydroxycamptothecin) [Compound 23]”, in series [5], the “Doubling Time in Plasma, Human (7-ethyl-10-hydroxycamptothecin formation rate from conjugates)” value (“Doubling Time in Plasma, Human” for short) worked out at 28.8 min and the “t1/2 in Human Plasma (PEG conjugate half life)” value (shortened to “t1/2 in Human Plasma”) is listed as 19.0 min. Also, the “Doubling Time in Plasma, Mouse (7-ethyl-10-hydroxycamptothecin formation rate from conjugates)” value (from here on “Doubling Time in Plasma, Mouse”) in [6] is reported as 43.4 min. In addition, in series [7], the “Doubling Time in Plasma, Rat (7-ethyl-10-hydroxycamptothecin formation rate from conjugates)” value (shortened to “Doubling Time in Plasma, Rat”) was 481 min.

Take “^40k4arm-PEG-Ala-(20)-(7-ethyl-10-hydroxycamptothecin) [Compound 12]”: the “Solubility in Saline” value in series [1] is on record as 121 mg/mL. Besides, in series [5], the “Doubling Time in Plasma, Human” value was 51.9 min and the “t1/2 in Human Plasma” value turned out to be 12.5 min. The “Doubling Time in Plasma, Mouse” value in series [6] amounted to 45.8 min. Further, in series [7], the “Doubling Time in Plasma, Rat” value was determined as 753 min.

Regarding “^40k4arm-PEG-Gly(20)-(7-ethyl-10-hydroxycamptothecin) [Compound 9]”, the “number of allantoic vessels radiating towards the tumor specimen” value in series [3] is “decreased”. Moreover, the “number of radiating vessels which invade the tumor specimen” value in series [3] (compound 9 compared to CPT-11, P<0.01) is given as “much less”. Also, in series [8] (setting [14]), the “CD31 expression in primary NB tumors” value was “inhibited” and the “VEGF expression in primary NB tumors” value is on record as “inhibited”. For the same compound, in series [8] (compared to mice treated with CAMPTOSAR, P<0.05, 10 mg/kg i.v. q2d×5), the “number of CD31-positive endothelial cells” value is listed as “decreased”. In series [8] (setting [15]), the MMP-2 expression entry is “inhibited” and the MMP-9 expression entry is “inhibited”. Also, in series [9], the “Histone H2ax staining in tumor tissues” value is recorded as “enhanced” and the “TUNEL staining in tumor tissues (apoptosis)” value is reported as “enhanced”. Further, the “downregulation of HIF-1α (luminescence normalized for tumor mass, change from baseline)” value with HIF-1α [4] (setting [13]) came to 93%. In addition, in the series on HIF-1α [4] (single dose (qd×1, compound 9 30 mg/kg), 48 hours), the “downregulation of HIF-1α (luminescence normalized for tumor mass, change from baseline)” value worked out at 37%. The “downregulation of HIF-1α (luminescence normalized for tumor mass, change from baseline)” value in the series with HIF-1α [4] (single dose (qd×1, compound 9 30 mg/kg), 120 hours) is listed as 83%. Besides, in the series on HIF-1α [4], the “luminescence (HIF-1-dependent luciferase)” value was “diminished luminescence”. In addition, the tumor mass entry in the series on U251-HRE xenografts was “reduced”. Further, in the series with HIF-1α [10] (human neuroblastoma cells, 24 hours (FIG. 14B)), the “constitutive HIF-1α protein levels” value is “decreased”. Further, the “DFX-induced HIF-1α protein levels” value in the series with HIF-1α [10] (pre-incubated with 0.15 mM Desferal 6 hours, then treated 24 hours (FIG. 14C)) is reported as “decreased”. In addition, in the series on HIF-2α, the “expression of HIF-2α protein” value was “inhibited”.

Take “^40k4arm-PEG-Met-(20)-(7-ethyl-10-hydroxycamptothecin) [Compound 18]”: the “Solubility in Saline” value in [1] amounted to 142 mg/mL. For the same compound, in series [5], the “Doubling Time in Plasma, Human” value worked out at 22.2 min and the “t1/2 in Human Plasma” value was 26.8 min. The “Doubling Time in Plasma, Mouse” value in [6] was 41.9 min. The “Doubling Time in Plasma, Rat” value in series [7] was determined as 1920 min.
